Source: patent publication US20200030355A1, “COMBINATION THERAPY FOR TREATING CANCER” (Epizyme, Inc., priority 2014, published 2020)

How the values were obtained:
MOLM-13 (MLL-AF9) [1] = assay: EPZ-5676 7-day pre-treatment, then second compound 72 hours, growth inhibition GI100 shift; primary screen and retest (Example 7); assay type: cell-based, human; conditions: second compound 72 hours; for Combination with EPZ-5676, MOLM-13 (MLL-AF9) Retest: 150 nM EPZ-5676 7-day pre-treatment, Cell Titer Glo; for Combination with EPZ-5676, MOLM-13 (MLL-AF9) Primary screen: 300 nM EPZ-5676 7-day pre-treatment, ATPLite
Procedure: (§1) Cells were then equilibrated in incubators for 24 hours before treatment with a second compound. Treated assay plates were incubated with a second compound for 72 hours. After this time, plates were developed for endpoint analysis using ATPLite to measure ATP content, which is used as an indicator of cell viability.
(§2) Cells were then treated with a second compound for 72 hours. After this time, plates were developed for endpoint analysis using Cell Titer Glo to measure ATP content, which is used as an indicator of cell viability.
(§3) “N/D” means the GI100 of the second compound could not be determined for both conditions and “-” means not tested.
(§4) Growth Inhibition (GI) as a measure of cell viability: The cell viability of vehicle was measured at the time of dosing the second agent (T0) and after seventy-two hours (T72). […] A GI 200% represents complete death of all cells in the culture well. Compounds reaching an activity plateau of GI 200% are considered cytotoxic. GI is calculated by applying the following test and equation: […]
(§5) where T is the signal measure for a test article, V is the vehicle-treated control measure, and V0 is the vehicle control measure at time zero.

SKM-1 (non-MLLr) = assay: as above; assay type: cell-based, human; conditions: 300 nM EPZ-5676 7-day pre-treatment, Cell Titer Glo
Procedure: as §1, §2, §3, §4, §5

OCI-AML-4 (MLL-ENL) = assay: as above; assay type: cell-based; conditions: 300 nM EPZ-5676 7-day pre-treatment; second compound 72 hours; Cell Titer Glo
Procedure: as §1, §2, §3, §4, §5

MOLM-13 cells = assay: EPZ-5676 300 nM 7-day pre-treatment, then second compound 72 hours, ATPLite, IC50 shift (Example 6); assay type: cell-based, human; conditions: 300 nM EPZ-5676 or DMSO 7-day pre-treatment, then 2nd compound 72 hours, Synergy = IC50 of 2nd compound decreased by 2-fold or more vs DMSO control
Procedure: as §1
(§6) “N/D” means that IC50 of the second compound could not be determined for both conditions.

SKM-1 cells = assay: as above; assay type: cell-based, human; conditions: SKM-1 cells; 300 nM EPZ-5676 or DMSO 7-day pre-treatment, then 2nd compound 72 hours, ATPLite; Synergy = IC50 of 2nd compound decreased by 2-fold or more vs DMSO control
Procedure: as §1, §6

MOLM-13 (MLL-AF9) [2] = assay: Combination proliferation study with Compound A2 (ATP/CellTiter-Glo, Chou-Talalay combination index); assay type: cell-based, human; conditions: 7 Day Cotreatment Model, Table 5
Procedure: The acute myelogenous leukemia cell lines MV4-11 (MLL-AF4) and MOLM-13 (MLL-AF9) were obtained from American Type Culture Collection (ATCC; Rockville, Md.) and Deutsche Sammlung von Mikroorganismen and Zellkulturen (DSMZ; Braunschweig, Germany) respectively.
(§7) Studies were performed using MLL-rearranged cell lines in vitro to evaluate the anti-proliferative effect of a combination of two agents together on cell growth. Initial proliferation studies were performed to determine the IC50 of a given compound in each cell line. The cell counts were measured by ATP quantitation using the Promega Cell Titer Glo kit and luminescence values corresponded to the amount of ATP in a given well.
Compounds were evaluated for synergy in the co-treatment phase by testing the compounds in a concentration range which was bracketed around their IC50 values. The compounds were plated to a 96 well plate in a matrix format (FIG. 3) which includes increasing concentrations of each drug in the combination in a constant ratio, in addition to the effect of each compound alone in the study. Cells were seeded and grown in the log-linear phase for 3 or 7 days in the co-treatment phase. Minimum inhibition (DMSO alone) controls were used in each plate to calculate fraction affected (Fa) of a test well. DMSO concentration was kept at 0.1% v/v.
The drug combination analysis was performed utilizing the Chou-Talalay method Synergy was determined using the software package Calcusyn by Biosoft. The combination index (CI) is a quantitative term used to describe the level of synergy or antagonism in a given test system. A combination index less than one indicates synergy, and a CI greater than one indicates antagonism. Further, strong synergism is achieved when the CI value falls below 0.3.
Graphs representing values of combination index (CI) versus Fractional effect (Fa) known as Fa-CI plots were generated and synergy was evaluated. Drug synergy was statistically defined by CI values less than 1, antagonism by CI>1 and additive effect by CI equal to 1.
Graphs representing values of combination index (CI) versus Fractional effect (Fa) known as Fa-CI plots were generated and synergy was evaluated. Drug synergy was statistically defined by CI values less than 1, antagonism by CI>1 and additive effect by CI equal to 1. […]
Cell viability was measured via ATP content using CellTiter-Glo® (Promega).
as §7, with “Proliferation studies” for “Studies”, “MOLM-13, MV4-11 and SKM-1” for “MLL-rearranged”, “cancer cell killing” for “anti-proliferative”, “IC50 values” for “IC50”, “correspond” for “corresponded”, “well. […]” for “well.”
Compounds evaluated for synergy in the co-treatment phase were tested in a range which was bracketed around the IC50's.

Cn1cnc2c(F)c(Nc3ccc(Br)cc3F)c(C(=O)NOCCO)cc21 [Binimetinib (MEK-162), Binimetinib]
Combination with EPZ-5676, MOLM-13 (MLL-AF9) Retest (MOLM-13 (MLL-AF9) [1]): Synergy (considered synergistic if the GI100 (Growth inhibition 100) value of the second compound decreased by 2-fold or more when EPZ-5676 was added as compared to the DMSO control) | Combination with EPZ-5676, SKM-1 (non-MLLr) Retest (SKM-1 (non-MLLr)): Synergy (considered synergistic if the GI100 (Growth inhibition 100) value of the second compound decreased by 2-fold or more when EPZ-5676 was added as compared to the DMSO control) | Combination with EPZ-5676, OCI-AML-4 (MLL-ENL) Retest (OCI-AML-4 (MLL-ENL)): Synergy (considered synergistic if the GI100 (Growth inhibition 100) value of the second compound decreased by 2-fold or more when EPZ-5676 was added as compared to the DMSO control)

COCc1c(C(C)C)nc(C(C)C)c(/C=C/[C@@H](O)C[C@@H](O)CC(=O)O)c1-c1ccc(F)cc1 [Cerivastatin Sodium]
MOLM-13 (summary of combination study: EPZ-5676 + 2nd compound) (MOLM-13 cells): Synergy (considered synergistic if the IC50 value of the second compound decreased by 2-fold or more when EPZ-5676 was added as compared to the DMSO control) | SKM-1 (summary of combination study: EPZ-5676 + 2nd compound) (SKM-1 cells): Synergy (considered synergistic if the IC50 value of the second compound decreased by 2-fold or more when EPZ-5676 was added as compared to the DMSO control)

Cn1nccc1Nc1nccc(-c2ccn([C@H](CO)c3ccc(Cl)c(F)c3)c(=O)c2)n1 [GDC0994]
Combination with EPZ-5676, SKM-1 (non-MLLr) Retest (SKM-1 (non-MLLr)): Synergy (considered synergistic if the GI100 (Growth inhibition 100) value of the second compound decreased by 2-fold or more when EPZ-5676 was added as compared to the DMSO control) | Combination with EPZ-5676, OCI-AML-4 (MLL-ENL) Retest (OCI-AML-4 (MLL-ENL)): Synergy (considered synergistic if the GI100 (Growth inhibition 100) value of the second compound decreased by 2-fold or more when EPZ-5676 was added as compared to the DMSO control)

CS(=O)(=O)N1CCN(Cc2cc3nc(-c4cccc5[nH]ncc45)nc(N4CCOCC4)c3s2)CC1 [GDC-0941]
MOLM-13 (summary of combination study: EPZ-5676 + 2nd compound) (MOLM-13 cells): Synergy (considered synergistic if the IC50 value of the second compound decreased by 2-fold or more when EPZ-5676 was added as compared to the DMSO control) | SKM-1 (summary of combination study: EPZ-5676 + 2nd compound) (SKM-1 cells): Synergy (considered synergistic if the IC50 value of the second compound decreased by 2-fold or more when EPZ-5676 was added as compared to the DMSO control)

COc1ccc(-c2ccc3c(N4CCOCC4)nc(N4C[C@@H](C)O[C@@H](C)C4)nc3n2)cc1CO [KU 0063794]
MOLM-13 (summary of combination study: EPZ-5676 + 2nd compound) (MOLM-13 cells): Synergy (considered synergistic if the IC50 value of the second compound decreased by 2-fold or more when EPZ-5676 was added as compared to the DMSO control) | SKM-1 (summary of combination study: EPZ-5676 + 2nd compound) (SKM-1 cells): Synergy (considered synergistic if the IC50 value of the second compound decreased by 2-fold or more when EPZ-5676 was added as compared to the DMSO control)

O=C(c1cn(Cc2cncn2Cc2ccc(Br)cc2)cc1-c1cccc2ccccc12)N1CCOCC1 [LB42708]
MOLM-13 (summary of combination study: EPZ-5676 + 2nd compound) (MOLM-13 cells): Synergy (considered synergistic if the IC50 value of the second compound decreased by 2-fold or more when EPZ-5676 was added as compared to the DMSO control) | SKM-1 (summary of combination study: EPZ-5676 + 2nd compound) (SKM-1 cells): Synergy (considered synergistic if the IC50 value of the second compound decreased by 2-fold or more when EPZ-5676 was added as compared to the DMSO control)

CN(C)C(=O)c1cc2cnc(Nc3ccc(N4CCNCC4)cn3)nc2n1C1CCCC1 [LEE011]
MOLM-13 (summary of combination study: EPZ-5676 + 2nd compound) (MOLM-13 cells): Synergy (considered synergistic if the IC50 value of the second compound decreased by 2-fold or more when EPZ-5676 was added as compared to the DMSO control) | SKM-1 (summary of combination study: EPZ-5676 + 2nd compound) (SKM-1 cells): Synergy (considered synergistic if the IC50 value of the second compound decreased by 2-fold or more when EPZ-5676 was added as compared to the DMSO control)

NC1(c2ccc(-c3nc4ccn5c(=O)[nH]nc5c4cc3-c3ccccc3)cc2)CCC1 [MK2206]
Combination with Compound A2, MOLM13 (MOLM-13 (MLL-AF9) [2]): Additive (additive effect by CI equal to 1) | MOLM-13 (summary of combination study: EPZ-5676 + 2nd compound) (MOLM-13 cells): Synergy (considered synergistic if the IC50 value of the second compound decreased by 2-fold or more when EPZ-5676 was added as compared to the DMSO control) | SKM-1 (summary of combination study: EPZ-5676 + 2nd compound) (SKM-1 cells): Synergy (considered synergistic if the IC50 value of the second compound decreased by 2-fold or more when EPZ-5676 was added as compared to the DMSO control)

Cc1sc2c(c1C)C(c1ccc(Cl)cc1)=N[C@@H](CC(=O)Nc1ccc(O)cc1)c1nnc(C)n1-2 [OTX015]
MOLM-13 (summary of combination study: EPZ-5676 + 2nd compound) (MOLM-13 cells): Synergy (considered synergistic if the IC50 value of the second compound decreased by 2-fold or more when EPZ-5676 was added as compared to the DMSO control) | SKM-1 (summary of combination study: EPZ-5676 + 2nd compound) (SKM-1 cells): Synergy (considered synergistic if the IC50 value of the second compound decreased by 2-fold or more when EPZ-5676 was added as compared to the DMSO control)

Cn1c(Nc2ccc(C(F)(F)F)cc2)nc2cc(Oc3ccnc(-c4ncc(C(F)(F)F)[nH]4)c3)ccc21 [RAF265]
Combination with EPZ-5676, MOLM-13 (MLL-AF9) Primary screen (MOLM-13 (MLL-AF9) [1]): Synergy (considered synergistic if the GI100 (Growth inhibition 100) value of the second compound decreased by 2-fold or more when EPZ-5676 was added as compared to the DMSO control)

CNC(=O)c1cc(Oc2ccc(NC(=O)Nc3ccc(Cl)c(C(F)(F)F)c3)cc2)ccn1 [Sorafenib]
MOLM-13 (summary of combination study: EPZ-5676 + 2nd compound) (MOLM-13 cells): Synergy (considered synergistic if the IC50 value of the second compound decreased by 2-fold or more when EPZ-5676 was added as compared to the DMSO control) | Combination with EPZ-5676, MOLM-13 (MLL-AF9) Retest (MOLM-13 (MLL-AF9) [1]): Synergy (considered synergistic if the GI100 (Growth inhibition 100) value of the second compound decreased by 2-fold or more when EPZ-5676 was added as compared to the DMSO control) | Combination with EPZ-5676, MOLM-13 (MLL-AF9) Primary screen (MOLM-13 (MLL-AF9) [1]): Synergy (considered synergistic if the GI100 (Growth inhibition 100) value of the second compound decreased by 2-fold or more when EPZ-5676 was added as compared to the DMSO control)

CC1=C(/C=C/C(C)=C/C=C/C(C)=C/C(=O)O)C(C)(C)CCC1 [Tretinoin]
MOLM-13 (summary of combination study: EPZ-5676 + 2nd compound) (MOLM-13 cells): Synergy (considered synergistic if the IC50 value of the second compound decreased by 2-fold or more when EPZ-5676 was added as compared to the DMSO control) | SKM-1 (summary of combination study: EPZ-5676 + 2nd compound) (SKM-1 cells): Synergy (considered synergistic if the IC50 value of the second compound decreased by 2-fold or more when EPZ-5676 was added as compared to the DMSO control)

COc1cc2c(NC3CCN(C4CCCCC4)CC3)nc(N3CCCN(C(C)C)CC3)nc2cc1OCCCN1CCCCC1 [UNC 0646]
MOLM-13 (summary of combination study: EPZ-5676 + 2nd compound) (MOLM-13 cells): Synergy (considered synergistic if the IC50 value of the second compound decreased by 2-fold or more when EPZ-5676 was added as compared to the DMSO control) | SKM-1 (summary of combination study: EPZ-5676 + 2nd compound) (SKM-1 cells): Synergy (considered synergistic if the IC50 value of the second compound decreased by 2-fold or more when EPZ-5676 was added as compared to the DMSO control)
